Test systems include LOX IMVI; 786-0; OVCAR-5; HCT-15; ACHN; HCT-116; BT-549; IGROV-1; Hs-578T; HOP-62; U-251; CCRF-CEM; RPMI-8226; CAKI-1; MDA-MB-231; A498; T47D; SNB-19; NCI-H522.
Holding throughout (assay): DTP human tumour cell line panel, 48 h

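Grown in 96-well plates, cells were treated for 48 hours with each compound at five concentrations. Insufficient inhibition: endpoint recorded as highest concentration tested. The concentration for 50% growth inhibition is given as GI50.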 Calls of active or inactive are those of the source. Cut-off read from the data, not from the text of the source: active = GI50 up to about 1.1 µM and inactive = higher.

For orientation: GI50 means the concentration that inhibits growth by half. On to `CN(C)c1ccc(C(c2ccc(N(C)C)cc2)c2ccc([N+](=O)[O-])cc2)cc1`, for which the GI50 with LOX IMVI was > 100 µM (inactive); in the experiment on 786-0, > 100 µM (inactive); in the experiment with OVCAR-5, > 100 µM (inactive); in the experiment with HCT-15, above 100 µM; with ACHN it was > 100 µM (inactive); with HCT-116, > 100 µM (inactive). Besides, the GI50 in the experiment on BT-549, in the experiment on IGROV-1, in the experiment on Hs-578T, with HOP-62, in the experiment on U-251 and with CCRF-CEM was > 100 µM (inactive) in each case. Moreover, the GI50 in the experiment with RPMI-8226 is 15.1 µM (inactive); in the experiment with CAKI-1, > 100 µM (inactive); in the experiment on MDA-MB-231 it was > 100 µM (inactive); in the experiment on A498, > 100 µM (inactive); with T47D, > 100 µM (inactive); with SNB-19, > 100 µM (inactive). The GI50 with NCI-H522 is > 100 µM (inactive).

On to `CC(C)CNc1nc(N)nc(O)c1NC=O`, for which the GI50 in the experiment with LOX IMVI was > 100 µM (inactive); with 786-0 it was > 100 µM (inactive); in the experiment on OVCAR-5, > 100 µM (inactive); in the experiment with HCT-15 it was above 100 µM; in the experiment with ACHN it was > 100 µM (inactive); in the experiment on HCT-116 it was > 100 µM (inactive). Besides, the GI50 with BT-549, in the experiment with IGROV-1, with Hs-578T, in the experiment on HOP-62, in the experiment with U-251 and with CCRF-CEM was > 100 µM (inactive) throughout. Besides, the GI50 in the experiment with RPMI-8226, in the experiment with CAKI-1, with MDA-MB-231, with A498, in the experiment with T47D and in the experiment with SNB-19 was > 100 µM (inactive) each time. Moreover, in the experiment on NCI-H522, the GI50 is > 100 µM (inactive).

With `O=C(NNC(=O)c1ccccc1O)c1cccc(Br)c1`, the GI50 was 15.2 µM (inactive) in the experiment on LOX IMVI; 44.9 µM (inactive) in the experiment on 786-0; > 100 µM (inactive) in the experiment on OVCAR-5; 6.85 µM with HCT-15; 7 µM (inactive) with ACHN; 24.1 µM (inactive) in the experiment with HCT-116. The GI50 was > 100 µM (inactive) in the experiment with BT-549; 18.3 µM (inactive) in the experiment with IGROV-1; > 66.7 µM (inactive) in the experiment on Hs-578T; 56.8 µM (inactive) in the experiment on HOP-62; > 100 µM (inactive) in the experiment with U-251; 0.512 µM (active) with CCRF-CEM. Further, the GI50 in the experiment with RPMI-8226 is 15.2 µM (inactive); in the experiment on CAKI-1, 24.3 µM (inactive); in the experiment with MDA-MB-231 it was 18.2 µM (inactive); in the experiment on A498, > 92.9 µM (inactive); with T47D it was > 51.6 µM (inactive); in the experiment with SNB-19 it was 73.6 µM (inactive). In addition, in the experiment on NCI-H522, the GI50 was 6.25 µM (inactive).

On to `N#C/C=C1\C=CC(O)C(O)C1OC1OC(CO)C(O)C(O)C1O` (stereo not given), for which the GI50 in the experiment with LOX IMVI is > 100 µM (inactive); in the experiment on 786-0, > 100 µM (inactive); in the experiment with OVCAR-5, > 100 µM (inactive); in the experiment on HCT-15, above 100 µM; with ACHN, > 100 µM (inactive); in the experiment with HCT-116, > 100 µM (inactive). For the same molecule, the GI50 in the experiment on BT-549, with IGROV-1, with Hs-578T, with HOP-62, in the experiment with U-251 and with CCRF-CEM was > 100 µM (inactive) each time. The GI50 in the experiment on RPMI-8226, in the experiment with CAKI-1, in the experiment on MDA-MB-231, with A498, with T47D and in the experiment with SNB-19 was > 100 µM (inactive) in each case. For the same molecule, in the experiment with NCI-H522, the GI50 was > 100 µM (inactive).

With `O=C1C(/C=N/CCc2c[nH]c3ccccc23)C(C(F)(F)F)=NN1c1nc2ccccc2s1` (stereo not given), the GI50 with LOX IMVI was 27.9 µM (inactive); in the experiment on 786-0 it was 39.2 µM (inactive); in the experiment on OVCAR-5 it was 29.2 µM (inactive); in the experiment on HCT-15, 29.9 µM; in the experiment on ACHN, 27.4 µM (inactive); in the experiment on HCT-116, 31.6 µM (inactive). Moreover, the GI50 was 25.3 µM (inactive) in the experiment with BT-549; 24.4 µM (inactive) in the experiment on IGROV-1; 44.1 µM (inactive) with Hs-578T; 20.4 µM (inactive) in the experiment with HOP-62; 34.8 µM (inactive) in the experiment with U-251; 19.5 µM (inactive) in the experiment with CCRF-CEM. In addition, the GI50 with RPMI-8226 is 22.2 µM (inactive); in the experiment with CAKI-1, 37.2 µM (inactive); in the experiment on MDA-MB-231, 36.7 µM (inactive); in the experiment on A498 it was 20.3 µM (inactive); in the experiment with T47D it was 0.664 µM (active); in the experiment with SNB-19 it was 36.5 µM (inactive). In addition, the GI50 with NCI-H522 was 19.5 µM (inactive).

For `Cc1cc(/N=C/c2ccc(N(C)C)cc2)n(-c2ccccc2)n1`, the GI50 was 48.3 µM (inactive) in the experiment on LOX IMVI; 51.8 µM (inactive) in the experiment with 786-0; > 100 µM (inactive) in the experiment with OVCAR-5; 15.6 µM in the experiment with HCT-15; > 100 µM (inactive) with ACHN; 25.5 µM (inactive) in the experiment on HCT-116. In addition, the GI50 in the experiment on BT-549 is 51.3 µM (inactive); with IGROV-1 it was 50.6 µM (inactive); with Hs-578T it was 29.9 µM (inactive); with HOP-62 it was 17 µM (inactive); with U-251 it was 27.4 µM (inactive); with CCRF-CEM, 22.2 µM (inactive). In addition, the GI50 in the experiment on RPMI-8226 is 91.8 µM (inactive); in the experiment with CAKI-1, 62.7 µM (inactive); in the experiment with MDA-MB-231, 91.6 µM (inactive); in the experiment with A498 it was 26.1 µM (inactive); in the experiment on T47D, 18.5 µM (inactive); in the experiment on SNB-19, 61.2 µM (inactive). Also, in the experiment with NCI-H522, the GI50 is 30.1 µM (inactive).

`CSc1nc(Br)nc2c1ncn2C1CC(Oc2ccc(C)cc2)C(COc2ccc(C)cc2)O1` (stereo not given): the GI50 in the experiment on LOX IMVI was > 100 µM (inactive); with 786-0, > 100 µM (inactive); in the experiment with OVCAR-5, > 100 µM (inactive); in the experiment with HCT-15, above 100 µM; in the experiment with ACHN, 33.7 µM (inactive); with HCT-116 it was > 100 µM (inactive). The GI50 in the experiment on BT-549 is > 100 µM (inactive); in the experiment on IGROV-1, > 100 µM (inactive); in the experiment with Hs-578T, 25.2 µM (inactive); in the experiment with HOP-62, > 100 µM (inactive); in the experiment on U-251, > 100 µM (inactive); in the experiment with CCRF-CEM, > 100 µM (inactive). Further, the GI50 in the experiment with RPMI-8226 was 93.8 µM (inactive); in the experiment on CAKI-1 it was > 100 µM (inactive); in the experiment on MDA-MB-231, 61.2 µM (inactive); in the experiment with A498, > 100 µM (inactive); in the experiment on T47D, > 100 µM (inactive); in the experiment on SNB-19, 22.5 µM (inactive). Further, in the experiment with NCI-H522, the GI50 is > 100 µM (inactive).

In the case of `C[C@H]1[C@H](C)CC[C@]2(C(=O)OC3OC(CO)C(O)C(O)C3O)CC[C@]3(C)C(=CC[C@@H]4[C@@]5(C)C[C@H]6OC(=O)c7cc(O)c(O)c(O)c7-c7c(cc(O)c(O)c7O)C(=O)O[C@@H]6C(CO)(CO)[C@@H]5CC[C@]43C)[C@H]12` (stereo not given in full), the GI50 is 16.4 µM (inactive) with LOX IMVI; 19.5 µM (inactive) with 786-0; > 95.9 µM (inactive) in the experiment with OVCAR-5; 24.8 µM in the experiment with HCT-15; > 100 µM (inactive) with ACHN; 54.1 µM (inactive) in the experiment on HCT-116. In addition, the GI50 is > 100 µM (inactive) in the experiment with BT-549; > 100 µM (inactive) in the experiment on IGROV-1; > 100 µM (inactive) in the experiment with Hs-578T; > 100 µM (inactive) in the experiment on HOP-62; 17.7 µM (inactive) in the experiment with U-251; 24.5 µM (inactive) in the experiment with CCRF-CEM. The GI50 in the experiment on RPMI-8226 is > 100 µM (inactive); in the experiment with CAKI-1, 19.5 µM (inactive); in the experiment on MDA-MB-231 it was 15.6 µM (inactive); in the experiment with A498, > 100 µM (inactive); in the experiment on T47D, > 74.8 µM (inactive); in the experiment with SNB-19, 43.7 µM (inactive). The GI50 with NCI-H522 is 16.6 µM (inactive).

Turning to `NS(=O)(=O)c1ccc(Nc2c3ccccc3nc3c(C(=O)NC(CO)(CO)CO)cccc23)cc1`, the 50% growth inhibitory concentration (GI50) was 0.132 µM (active) in the experiment on LOX IMVI; 0.0201 µM (active) with 786-0; 0.233 µM (active) in the experiment on OVCAR-5; 0.282 µM with HCT-15; 0.19 µM (active) in the experiment on ACHN; 0.144 µM (active) in the experiment with HCT-116. In addition, the GI50 was 0.126 µM (active) in the experiment on BT-549; 0.136 µM (active) in the experiment with IGROV-1; 0.154 µM (active) in the experiment on Hs-578T; 0.178 µM (active) in the experiment with HOP-62; 0.119 µM (active) in the experiment on U-251; 0.0557 µM (active) with CCRF-CEM. The concentration for 50% growth inhibition (GI50) in the experiment with RPMI-8226 was 0.217 µM (active); with CAKI-1 it was 0.218 µM (active); in the experiment on MDA-MB-231 it was 0.195 µM (active); in the experiment on A498, 0.224 µM (active); in the experiment on T47D, 0.0815 µM (active); with SNB-19 it was 0.217 µM (active). For the same molecule, the 50% growth inhibitory concentration (GI50) in the experiment with NCI-H522 was 0.15 µM (active).

As for `COC1OC(C)C(NC(=O)OCC(Cl)(Cl)Cl)C2OC(C)(C)OC12` (stereo not given), the GI50 in the experiment with LOX IMVI is > 10 µM (inactive); in the experiment on 786-0, > 100 µM (inactive); in the experiment on OVCAR-5 it was > 100 µM (inactive); with HCT-15, above 100 µM; with ACHN, > 100 µM (inactive); in the experiment on HCT-116, > 100 µM (inactive). The GI50 in the experiment with BT-549, in the experiment with IGROV-1, in the experiment on Hs-578T, with HOP-62, with U-251 and in the experiment with CCRF-CEM was > 100 µM (inactive) each time. Further, the GI50 in the experiment on RPMI-8226, with CAKI-1, with MDA-MB-231, with A498, with T47D and in the experiment with SNB-19 was > 100 µM (inactive) throughout. In addition, the GI50 in the experiment on NCI-H522 was > 100 µM (inactive).

The record behind these values is ChEMBL document CHEMBL1201862, “PubChem BioAssay data set” (2004).
